Reference: patent publication US7683073B2, “Isoquinoline-1,3,4-trione compounds, the synthetic method and the use thereof” (Shanghai Institute of Materia Medica, Chinese Academy of …, priority 2005, dated 2010)

What was measured:
PC12 cells [1] = assay: Flow cytometry detection of apoptotic PC12 cells (propidium iodide, sub-G1); format: cell-based
Protocol: Media were DMEM(HG) containing 10% calf serum.
2×10^6 cells were collected at different time respectively after PC12 were treated in the same method. Cell precipitation was washed twice with PBR, followed by adding ice ethanol, and the resulting solution was blown to disperse the cells into single, fixed for 2 hours at 4° C. Before staining, the solution was centrifuged at 300 rpm for 10 minutes, and the supernatant was discarded, then the precipitation was washed twice with PBR to remove ethanol substantially. Into the cell precipitation was added a staining solution (containing 0.1% TritonX-100, 0.1 mM EDTApH7.4, 0.01 mg/ml RNase A, 50 μg/ml propidium iodide). Cell fluorescence was detected with flow cytometry after the cells in staining solution for 30 minutes at 4° C. away from light, and percentage and cycle of apoptotic cells were calculated by analyzing DNA content. The results were obtained by flow cytometry laboratory of Institute of Biochemistry and Cell Biology, CAS.
As illustrated from the above results, it may be seen that caspase-3 inhibitors could protect PC12 markedly and resist apoptosis of PC12 mediated by neurotoxicity of Aβ of Aβ25-35, and they have no toxicity in low concentration themselves.

PC12 cells [2] = assay: Morphological comparison of PC12 cells treated with Aβ and caspase-3 inhibitors; settings: inhibitor alone; 28 μM chen-1, 200 nM Ac-Asp-Glu-Val-Asp-aldehyde; phase contrast microscope, 72 hours
Protocol: Culture of cells: PC 12 cells were obtained from XiCan Tang of Institute of Material Medica, CAS. Media were DMEM(HG) containing 10% calf serum. PC12 were incubated in an incubator with constant temperature with 5% carbon dioxide at 37° C. The cells were inoculated in Petri dishes and 96-well plates in the amount […], the compounds of the present invention were added into after 12 hours, and […] of apoptosis inducer, Aβ25-35, was added after 24 hours.

[3] = Aβ25-35 and inhibitor (2 μM Ac-DEVD-CHO, 28 μM Chen-1) in the medium at the same time
[4] = only caspase-3 inhibitor added, no Aβ25-35, after 72 hours

SMILES: O=C1NC(=O)c2ccccc2C1=O [Chen-1]
- percentage of apoptotic cells (PC12 cells [1]; [3]): 4.09%
- percentage of apoptotic cells (PC12 cells [1]; [4]): 2.15%
- toxic effect on PC12 cells (morphology) (PC12 cells [2]): no toxic effect

SMILES: CC(=O)N[C@@H](CC(=O)O)C(=O)N[C@@H](CCC(=O)O)C(=O)N[C@H](C(=O)N[C@H](C=O)CC(=O)O)C(C)C [Ac-DEVD-CHO, Ac-Asp-Glu-Val-Asp-aldehyde]
- percentage of apoptotic cells (PC12 cells [1]; [3]): 4.01%
- percentage of apoptotic cells (PC12 cells [1]; [4]): 2.27%
- toxic effect on PC12 cells (morphology) (PC12 cells [2]): no toxic effect
